Laboratory results as given in patent publication US6884810B2, “Benzimidazole derivatives” (Zeria Pharmaceutical Co., Ltd., priority 2001, dated 2005).

Experiments:
H+/K+-ATPase = target: T1, H+/K+-ATPase (Sus scrofa, UniProt P19156); assay: Proton pump inhibitory action: activity of inhibiting H+/K+-ATPase (at pH 1); assay type: biochemical; conditions: pig gastric mucosa enzyme sample; test compounds pretreated in hydrochloric acid solution pH 1 (50% DMSO) for 15 minutes; read-out: Proton pump inhibitory action [IC50 (μmol/L)]
T1 construct: The mucous membrane layer was homogenized in Tris-HCl buffer; from tissue; host or cells: pig stomach body, mucous membrane layer, membrane fraction from a sucrose interface
T1 sequence (P19156 2-1034 limits assumed): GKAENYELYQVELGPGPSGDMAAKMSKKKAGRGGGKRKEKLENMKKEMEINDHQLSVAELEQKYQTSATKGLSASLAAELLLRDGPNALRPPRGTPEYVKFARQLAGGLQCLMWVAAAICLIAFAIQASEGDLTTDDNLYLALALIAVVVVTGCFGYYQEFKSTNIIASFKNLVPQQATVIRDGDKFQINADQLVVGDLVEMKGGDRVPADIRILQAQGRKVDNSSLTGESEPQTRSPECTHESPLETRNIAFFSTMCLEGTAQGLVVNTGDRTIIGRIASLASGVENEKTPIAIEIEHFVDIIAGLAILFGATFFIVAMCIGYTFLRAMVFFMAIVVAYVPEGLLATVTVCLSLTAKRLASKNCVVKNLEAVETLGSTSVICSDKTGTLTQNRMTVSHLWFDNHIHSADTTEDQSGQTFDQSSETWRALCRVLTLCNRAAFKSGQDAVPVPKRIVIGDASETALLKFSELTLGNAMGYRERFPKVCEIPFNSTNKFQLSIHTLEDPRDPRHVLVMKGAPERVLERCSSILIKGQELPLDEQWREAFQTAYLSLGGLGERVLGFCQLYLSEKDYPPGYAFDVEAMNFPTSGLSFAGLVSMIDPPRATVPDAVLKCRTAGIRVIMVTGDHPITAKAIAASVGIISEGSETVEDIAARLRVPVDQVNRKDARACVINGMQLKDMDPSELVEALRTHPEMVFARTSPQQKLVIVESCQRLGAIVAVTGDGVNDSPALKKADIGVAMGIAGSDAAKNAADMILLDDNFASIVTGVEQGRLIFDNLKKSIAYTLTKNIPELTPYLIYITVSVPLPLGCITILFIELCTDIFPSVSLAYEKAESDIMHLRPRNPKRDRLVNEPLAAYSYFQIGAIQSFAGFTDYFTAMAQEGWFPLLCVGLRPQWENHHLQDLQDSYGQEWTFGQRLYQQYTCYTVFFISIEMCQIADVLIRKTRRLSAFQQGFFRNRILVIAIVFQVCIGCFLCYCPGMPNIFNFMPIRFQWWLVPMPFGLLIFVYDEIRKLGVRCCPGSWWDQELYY
T1 sequence (P18434 whole entry partner): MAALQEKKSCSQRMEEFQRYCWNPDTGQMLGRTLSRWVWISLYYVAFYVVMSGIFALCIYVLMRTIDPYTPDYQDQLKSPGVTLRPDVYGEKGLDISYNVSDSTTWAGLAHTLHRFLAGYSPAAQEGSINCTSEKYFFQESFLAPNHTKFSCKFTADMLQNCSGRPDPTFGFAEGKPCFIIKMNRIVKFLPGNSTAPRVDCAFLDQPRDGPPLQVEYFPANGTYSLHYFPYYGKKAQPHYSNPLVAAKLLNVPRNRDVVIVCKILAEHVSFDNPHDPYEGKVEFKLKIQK
Text: (Proton Pump Inhibitory Action)
(1) Preparation of Enzyme Sample (H^+/K^+-ATPase)
The stomach body removed from a pig, which had been stored in a frozen state, was separated into a muscle layer and a mucous membrane layer. The mucous membrane layer was homogenized in Tris-HCl buffer (20 mmol/L, pH 7.4) having a volume 5 times that of the layer and containing sucrose (0.25 mol/L) and EGTA (1 mmol/L) (hereinafter the mixture is referred to as Tris-HCl buffer) in a mixer. The homogenate was subjected to centrifugation (9,000×g, 30 minutes). The supernatant was softly placed on 8 mL Tris-HCl buffer (20 mmol/L, pH 7.4) containing 30% sucrose and 1 mmol/L EGTA. The mixture was subjected to ultracentrifugation at 100,000×g for 60 minutes. The interface fraction obtained through centrifugation was subjected to centrifugation (113,000×g, 60 minutes) twice. Pellet was suspended in Tris-HCl buffer, and the suspension was homogenized at low speed. The resultant homogenate served as an enzyme sample of interest and was stored at −80° C. The protein content of the sample was quantitated through use of a BCA protein assay reagent in accordance with a method described by Smith et al. (Anal. Biochem., 150, 76-85 (1985)). All these steps were performed under cooling with an ice bath.
(2) Activity of inhibiting H^+/K^+-ATPase (at pH 1)
Activity of inhibiting H^+/K^+-ATPase was measured in accordance with a method described in Biochem. Biophys. Res. Commun., 40, 880-886 (1970). Specifically, ATP was employed as a substrate, and inorganic phosphate, which is a resultant degradation product, was quantitated. In consideration of the solubility of test compounds, the test compounds were preliminarily treated with a hydrochloric acid solution (containing 50% DMSO, 1×10^−1 mol/L, pH 1). Each of the test compounds having different concentrations was added to the hydrochloric acid solution to thereby yield a 1,000—fold dilution, and thereafter, the diluted compound was allowed to stand for 15 minutes at room temperature. After these preliminary remedies, a 10 μL solution that had undergone the above preliminary remedies were added to 840 μL Tris-acetate buffer (40 mmol/L, pH 7.5, containing 2 mmol/L MgCl2, may be referred to as TE buffer) containing or not containing 20 mmol/L KCl. Subsequently, a 100 μL enzyme solution (5 μg protein) diluted with the TE buffer was added. Incubation was performed for 30 minutes at 37° C. Thereafter, a 50 μL ATP solution (40 mmol/L) which was dissolved in TE buffer not containing KCl was added to initiate enzyme reaction (total volume: 1 mL, ATP final concentration: 2 mmol/L). Incubation was performed for 30 minutes at 37° C. Subsequently, ice-cold 12% trichloroacetic acid (2 mL) was added, to thereby stop the enzyme reaction. A molybdenum reagent (1 mL, 3.75% ammonium molybdate/1.5 mol/L sulfuric acid) and butyl acetate (5 mL) were added, followed by mixing under vigorous shaking for 5 minutes. The absorption of the butyl acetate layer was measured at 310 nm. A standard curve was determined on the basis of absorption obtained through the similar procedure by use of KH2PO4 at different concentrations dissolved in 8% TCA solution, and inorganic phosphate content was calculated. Samples to be measured were prepared in duplicate. The measurements were averaged, and residual activity was obtained from the difference between the inorganic phosphate content as determined in a sample containing KCl and that as determined in a sample not containing KCl. Percentage inhibition activity was calculated with respect to the activity obtained from a control sample (DMSO), which was considered 100%. As the inhibitory potency of each test compound, IC50 values were computed and shown. All the test compounds were dissolved in dimethyl sulfoxide immediately before use.

[1] = tested on: gastric acid secreted under stimulation with histamine; assay: Gastric acid secretion inhibition action, histamine-stimulated, acute Fistula method; assay type: in vivo, Sprague-Dawley (SD) rats; conditions: SD rats, administered in the duodenum, histamine 8 mg/kg/h, total acid discharge at 3, 4 and 5 hours, Probit method
Description: (Gastric Acid Secretion Inhibition Action)
(1) Test Animals Employed were Sprague-Dawley (SD) Rats (7 Weeks Old, Male) Purchased from Charles River Japan, Inc. Before the Test, the Rats Were Fed for 5 Days or More.
Each test drug was suspended in, or dissolved in, 0.5% sodium carboxymethylcellulose solution, whereby a suspension or solution was prepared so as to attain 2.5 mL/kg.
(2) Measurement of Gastric Acid Secretion
The amount of gastric acid secreted under stimulation with histamine was measured on the rats fasted for 18 hours by use of the acute Fistula method as described by Hiramatsu et al. (Dig. Dis. Sci.,39, 689-697(1994)). Briefly, each rat was etherized lightly, and then a winged tubular needle filled with 3.8% citric acid solution was indwelled in the tail vein of the rat. The abdomen of the rat was opened, and the pyloric part of the stomach was ligated. Subsequently, a small hole was made in the duodenum, and the abdomen of the rat was closed with a feeding tube filled with saline indwelled. The inside of the stomach was washed with saline, a polyethylene-made Fistula tube (inner diameter: 4 mm) was set in the anterior stomach, and the cut portion of the anterior stomach was ligated and secured. The stomach and the duodenum were returned to the abdominal cavity, with the Fistula tube and the feeding tube exposed outside. The rat was placed in a Ballman cage II. Histamine was continuously administered through the winged injection needle which had been indwelled in the tail vein in advance (8 mg/kg/h, 1.38 mL/h). 15 Minutes thereafter, gastric juice of the rat was collected. Subsequently, collection of gastric juice was performed every one hour. Each time, the amount of the collected gastric juice was recorded, followed by titration with NaOH (0.1 mol/L) up to the end point pH 7.0. From the volume consumed for titration, acidity was calculated. The acid discharge amount was calculated as a product of the amount of the gastric juice and the acidity. Before starting the test, the rats were grouped so that the intra-group total amount of the gastric juice samples initially collected was the same between groups. Thereafter, each test drug was administered (2.5 mL/kg) in the duodenum through a feeding tube which had been attached to the duodenum in advance. To each rat of a control group, 0.5% Na-CMC solution was administered.
(3) Analysis of the Results
The data as obtained above are shown by way of mean±standard error. Total amount of acid discharge was obtained through summation of the amounts of acid discharge at three points in time; i.e., 3, 4 and 5 hours after initial collection of gastric juice. Percent inhibition of each group was computed from the total acid discharge amount of the control group and that of each group. On the basis of the percent inhibition calculated for each group, 50% effective dose (ED50) was computed by use of the Probit method.

CYP2C19 = target: T2, CYP2C19 (Homo sapiens, UniProt P33261); assay: Human CYP2C19 activity inhibition test (S-(+)-mephenytoin to 4'-hydroxymephenytoin); assay type: in vitro ADME; conditions: test compound 10 μM, human CYP2C19 yeast expression system microsome, 4'-hydroxymephenytoin generated vs control; for CYP2C19 residual activity (%): 10 µM
T2 construct: purchased Sumitomo Chemical Co., Ltd; host or cells: yeast (microsomes)
T2 sequence (P33261 whole entry): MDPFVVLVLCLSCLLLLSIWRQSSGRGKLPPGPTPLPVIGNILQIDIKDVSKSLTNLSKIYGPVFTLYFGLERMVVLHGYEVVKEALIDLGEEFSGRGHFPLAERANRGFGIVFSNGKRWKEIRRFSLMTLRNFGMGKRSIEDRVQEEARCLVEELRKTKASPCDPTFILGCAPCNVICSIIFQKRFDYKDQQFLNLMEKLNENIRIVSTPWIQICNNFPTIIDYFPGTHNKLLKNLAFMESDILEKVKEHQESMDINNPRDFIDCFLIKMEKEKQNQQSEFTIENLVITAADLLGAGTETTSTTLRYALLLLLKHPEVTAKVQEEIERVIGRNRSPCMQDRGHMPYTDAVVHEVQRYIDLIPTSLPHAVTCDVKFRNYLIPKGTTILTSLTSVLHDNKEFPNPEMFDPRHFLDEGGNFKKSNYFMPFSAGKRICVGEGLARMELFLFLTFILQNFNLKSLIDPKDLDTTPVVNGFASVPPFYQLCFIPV
Description: (Human CYP2C19 Activity Inhibition Test)
CYP2C19 specifically participates in the metabolism reaction from S-(+)-mephenytoin to 4′-hydroxymephenytoin. Therefore, by use of an expression system CYP2C19, the production amount (concentration) of 4′-hydroxymephenytoin, serving as an index for CYP2C19 activity, was determined, whereby the inhibitory action of respective test substances was investigated.
(a) Metabolizing Activity Test
A solution of S-(+)-mephenytoin in methanol (125 μmol/L, 50 μL) and a solution of a test substance in methanol (25 μmol/L, 0, 10, 100, or 200 μL) were placed in a 10-mL glass test tube. The solvent was removed under a nitrogen gas at 40° C. A 75 μL mixture of 0.5M phosphate buffer (pH 7.4)-0.5 mM EDTA (20:10), 140 μL purified water, and 10 μL human CYP2C19 yeast expression system microsome (purchased from Sumitomo Chemical Co., Ltd.) were added.
Incubation was performed for 10 minutes at 37° C. Subsequently, aqueous 12% perchloric acid solution (50 μL) was added, to thereby stop the reaction.
After the reaction was stopped, an internal standard substance (I.S.) methyl p-hydroxybenzoate (100 μg/ mL, 50 μL), and diethyl ether (2 mL) were added. The mixture was shaken for 10 minutes, followed by centrifugation at 3,000 rpm for 10 minutes. The organic layer was separated, and the solvent was removed under a nitrogen gas at 40° C. The residue was dissolved in a 200 μL mobile phase, and the mixture was subjected to analysis by high performance liquid chromatography (HPLC).
In order to generate a calibration curve, the general procedure of the above process was repeated by use of 4′-hydroxymephenytoin solution instead of the S-(+)-mephenytoin solution. Quantitation was performed on the basis of the peak area ratio of 4′-hydroxymephenytoin to I.S. The amount of 4′-hydroxymephenytoin generated in the control sample was compared with that generated in the present of a test compound, and the results of comparison were used as an activity index.
HPLC was performed under the conditions described below (HPLC conditions A or HPLC conditions B).

IC50 (H+/K+-ATPase) [µmol/L] | CYP2C19 residual activity (%) (CYP2C19) | activity at 10 min, 10 µM (CYP2C19; human, pH 7.4, probe S-(+)-mephenytoin (to 4'-hydroxymephenytoin), read-out: CYP2C19 residual activity (%)) [%] | Compound | ED50 ([1]; Rattus norvegicus) [mg/kg] | Gastric-acid secretion inhibition action [ED50 (mg/kg)] [1] [mg/kg]
6.67 | 81.4 |  | [O-][S+](Cc1cc(OCCOCC(F)(F)F)ccn1)c1nc2ccccc2[nH]1 (single isomer, unassigned; (+)) [Example 14, (+)-2-{4-[2-(2,2,2-trifluoroethoxy)ethoxy]pyridin-2-yl-methanesulfinyl}-1H-benzimidazole] |  | 0.42
3.46 | 93.9 |  | COc1c(OCCOCC(F)(F)F)ccnc1C[S+]([O-])c1nc2ccccc2[nH]1 (single isomer, unassigned; (-)) [Example 4, (−)-2-{3-methoxy-4-[2-(2,2,2-trifluoroethoxy)ethoxy]pyridin-2-yl-methylsulfinyl}-1H-benzimidazole] |  | 2.6
7.86 |  | 88.8 | [O-][S+](Cc1cc(OCCOCC(F)(F)F)ccn1)c1nc2ccccc2[nH]1 (stereo not shown) [Example 12, 2-{4-[2-(2,2,2-trifluoroethoxy)ethoxy]pyridin-2-yl-methanesulfinyl}-1H-benzimidazole] |  | 

Compound | IC50 (H+/K+-ATPase) [µmol/L] | CYP2C19 residual activity (%) (CYP2C19) | activity at 10 min, 10 µM (CYP2C19; human, pH 7.4, probe S-(+)-mephenytoin (to 4'-hydroxymephenytoin), read-out: CYP2C19 residual activity (%)) [%] | ED50 ([1]; Rattus norvegicus) [mg/kg] | Gastric-acid secretion inhibition action [ED50 (mg/kg)] [1] [mg/kg]
COc1c(OCCCC(F)(F)F)ccnc1C[S+]([O-])c1nc2ccccc2[nH]1 (single isomer, unassigned; (+)) [Example 5(1), (+)-2-[3-methoxy-4-(4,4,4-trifluorobutoxy)pyridin-2-yl-methanesulfinyl]-1H-benzimidazole] | 3.32 | 78.6 |  | 0.9 | 
[O-][S+](Cc1cc(OCCCC(F)(F)F)ccn1)c1nc2ccccc2[nH]1 (single isomer, unassigned; (+)) [Example 11, (+)-2-[4-(4,4,4-trifluorobutoxy)pyridin-2-yl-methanesulfinyl]-1H-benzimidazole] | 3.77 |  |  |  | 0.50
